Results on one compound are retold here after patent publication US9642897B2, “Treatment of bone diseases” (THE UNIVERSITY OF SYDNEY, priority 2011, dated 2017).

The subject of series [1] is RUNX2, OCN and OPN. Kind of series: Osteogenic gene expression (RUNX2, OCN, OPN) in differentiating MSC. In kind it is cell-based, human. The method, then:
Subsequently, the effect of chemical inhibition/stimulation of the intermediate and end products of kynurenine activation on osteogenic differentiating MSC was then characterised.
These compounds were added to the MSC media on day one of differentiation. […] Media was changed every three days. […]

Series [2] is described as follows: Therapeutic safety of oral PA: weight, water consumption, survival. The series is classed as in vivo, C57BL/6 mice. To be noted: for Weight: after 6 weeks; for Water left: initial volume 500 mL, weekly average. The method, then:
Nine-month-old oophorectomised (OVX) and SHAM-operated C57BL/6 mice (n=24 per group) were obtained from the Animal Resources Centre (Perth, Wash.). After 2 weeks of acclimation, mice were divided into four groups (Table 2) and received treatment in their drinking water for a total of 6 weeks. Mice treated with plain water were used as controls. Mice were housed in cages in a limited access room.
Water left in the bottle (initial volume of 500 mL) was also quantified every week. […] These volumes correspond with the drinking pattern previously reported in this mouse model. (iii) Effect of Oral PA on Mineral Absorption in OVX Mice

The test system of series [3] is bone marrow stromal cells (BMSC) from IDO-1 KO and WT mice. Kind of series: Osteogenic differentiation of BMSC from IDO-1 KO and WT mice (alizarin red). Conditions: vs vehicle. The series is classed as cell-based. As to the method: One side tibiae from 9-month-old IDO-1^−/− and IDO-1^+/+ mice (n=6 per group) were flushed using a 21-gauge needle attached to a 10 ml syringe filled with Dulbecco's modified Eagle's medium (DME) (GIBCO BRL, Gaithersburg, Md., USA). The bone marrow cells were filtered through a cell strainer with a 70-micron nylon mesh (BD Bioscience, Bedford, Mass., USA) and plated in 10 cm^2 tissue culture dishes. The cells were incubated in growth medium at 37° C. with 5% humidified CO2 and isolated by their adherence to tissue culture plastic. Medium was aspirated and replaced with fresh medium every 2 to 3 days to remove non-adherent cells. The adherent MSC were grown to confluency for about 7 days and defined as MSC at passage 0, harvested with 0.25% trypsin and 1 mM EDTA for 5 min at 37° C., diluted 1:3 in growth medium, plated and grown to confluency for further expansion. After 2nd and 3rd passages, MSC were used for subsequent experiments.
To induce differentiation, a total of 10^4 cells were diluted in osteogenic medium and plated in 24 dishes per group in the presence or absence of either quinolinic or picolinic acid. Media was aspirated and replaced with fresh osteogenic medium every 3 days. At 21 days, medium was removed and cultures were fixed in 10% v/v formol/saline solution for 5 min. Cultures were stained with Alizarin Red, which was then extracted and quantified at 570 nm.

Series [4] concerns Runx2 and OCN. In words: Western blot of Runx2 and OCN in bone marrow cells of PA-treated mice. The series is classed as in vivo, C57BL/6 mice. As to the method: Marrow cells were obtained from the left femur of PA- and vehicle-treated animals (n=6 per group) by flushing with Dulbecco's alpha modified medium (DMEM). Red blood cells in marrow cells were hemolyzed in 0.017 M tris-HCl, pH 7.5, buffer containing 0.8% ammonium chloride. Hemolyzed bone marrow suspensions were rinsed twice with phosphate buffered saline (PBS). Protein extracts were obtained after suspending the cells in 2 volumes of buffer containing 10 mM EDTA, 0.5 mM phenylmethylsulfonyl fluoride, and one Complete™ protease inhibitor mixture tablet (Boehringer Mannheim, Laval, Quebec, Canada). […] Protein content was determined with a protein assay kit (Bio-Rad. Mississauga, Ontario), and samples were then aliquoted and stored at −80° C. […] Antigen-antibody complexes were detected by chemiluminescence using a kit of reagents from ECL (Amersham, UK) and blots were exposed to high-performance chemiluminescence film (Amersham, UK). Films were scanned and the optical density of each specific band analysed using the ImageMaster program and expressed as OD/mm2/100 μg of total protein. Relative intensity of the samples was determined comparing the protein of interest in the treated mice using the values of vehicle-treated mice as controls (100%). […]
For orientation: Immunoblotting shows a protein as a band on a membrane.

Series [5] concerns OVX C57BL/6 mice (osteoporosis model). In words: Quantitative μCT of femur and vertebrae in Sham and OVX mice. Conditions: oral PA 6 weeks. The series is classed as in vivo. As to the method:
Nine-month-old oophorectomised (OVX) and SHAM-operated C57BL/6 mice (n=24 per group) were obtained from the Animal Resources Centre (Perth, Wash.). After 2 weeks of acclimation, mice were divided into four groups (Table 2) and received treatment in their drinking water for a total of 6 weeks. Mice treated with plain water were used as controls. Mice were housed in cages in a limited access room. Mice were administered a lethal dose of anaesthetic at the indicated times, exsanguinated, and imaged using a Faxitron MX20 equipped with an FPX-2 Imaging system (Dalsa Medoptics, Waterloo, Ontario, Canada). μ-CT was performed on the left femur and lumbar vertebrae after removal of soft tissues and overnight fixation in 4% paraformaldehyde. The distal metaphysis of the femur and the body of the vertebrae were scanned with a Skyscan 1072 micro-CT instrument (Skyscan, Antwerp, Belgium). Image acquisition was performed at 100 kV and 98 μA, with a 0.9° rotation between frames. The two-dimensional images were used to generate three-dimensional reconstructions to obtain quantitative data with the 3D Creator software supplied with the instrument. Nomenclature and abbreviations of 3D-μCT parameters follow the recommendations of the American Society of Bone and Mineral Research (see Bouxsein et al. (2010), “Guidelines for assessment of bone microstructure in rodents using micro-computed tomography”, J Bone Miner Res., 25: 1468-1486).

Setting [6] is: highest dose (100 μM), 14 days post-induction.

Regarding `O=C(O)c1ccccn1` [PA, pyridine-2-carboxylic acid], the “relative gene expression of RUNX2, OCN and OPN” value in series [1] (differentiating MSC) is recorded as “increased”. Further, in series [1] (setting [6]), the “RE of RUNX2” value was 1.43. In addition, in series [1] (setting [6]), the RE of osteocalcin stood at 1.93. Further, the RE of osteopontin in series [1] (setting [6]) was 1.35. In addition, the Weight in series [2] (OVX, PA250 (250 mg/kg/d)) came out at 26 ± 1.6 gm; in series [2] (OVX, PA500 (500 mg/kg/d)), 28 ± 0.4 gm; in series [2] (OVX, PA1000 (1 gm/kg/d)), 26 ± 1.3 gm; in series [2] (Sham, PA250 (250 mg/kg/d)), 27 ± 2.0 gm; in series [2] (Sham, PA500 (500 mg/kg/d)), 26 ± 2.4 gm; in series [2] (Sham, PA1000 (1 gm/kg/d)) it was 26 ± 1.3 gm. Moreover, the Water left in series [2] (OVX, PA250) stood at 195 ± 28 ml/week; in series [2] (OVX, PA500), 195 ± 35 ml/week; in series [2] (OVX, PA1000), 250 ± 38 ml/week; in series [2] (Sham, PA250), 200 ± 32 ml/week; in series [2] (Sham, PA500), 155 ± 35 ml/week; in series [2] (Sham, PA1000), 260 ± 45 ml/week. The compound further yielded a mice survival rate in series [2] (female, C57BL/6, mouse, in vivo, po, 6 weeks) of 100%. Besides, in series [2] (oral PA 6 weeks), the side effects entry is reported as “no evidence of side effects”. Besides, in series [2] (oral PA 6 weeks), the “weight and water consumption vs vehicle-treated controls” value is recorded as “no difference”. The “mineralisation (alizarin red staining)” value in series [3] is given as “higher levels of mineralisation”. Further, the “protein expression of OCN and Runx2 (immunoblot)” value in series [4] is recorded as “significant increase”. The “bone relative to tissue volume (BV/TV)” value in series [5] is “significant and dose-dependent increase”. The “numbers of trabeculae (Tb.N)” value in series [5] is given as “increased”. In addition, the “thickness of trabeculae (Tb.Th)” value in series [5] is “increased”.
